IC50 and EC50 data for 22 molecules are collected here from patent US9340549B2, “Oxazolidinone compounds and derivatives thereof” (priority 2012, dated 2016).

Where two headings read alike, the source gives them in different places. Some results are limits rather than exact numbers.

Test [1] has as its target 6×HIS-tankyrase 1 (1091-1325) (Homo sapiens (Human), UniProt O95271). The test can be described thus: biochemical. Format: biochemical.
For test [2], the system named is total β-catenin in SW480 colorectal cells. The test can be described thus: cells. Format: cell-based. In outline:
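SW480 cells in growth medium (MEM alpha, 10% heat-inactivated FBS, 10 mM HEPES) treated with a 10-point, 3-fold dilution series of TNKS inhibitor for 40–48 h at 37 °C. Lysates run on an MSD sandwich immunoassay for total β-catenin, read by electrochemiluminescence.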

Test [3] relates to Axin2 in SW480 cells. The test can be described thus: cells. Format: cell-based. As to conditions: read-out: Axin2 384 IF EC50 IP. The procedure:
Using a VPrep, 10 μL of compound/controls was transferred from the compound plate to 60 μL in the cell plate (final 0.5% DMSO, 70 μL). The mixture was incubated for 24 hours at 37° C. at 5% CO2.
The extra media was tapped out. 50 μL of 4% paraformaldehyde (Fisher, AA433689M), 0.1% Triton (Sigma, X100-100 ML) in PBS were added, and the mixture was incubated for 15 minutes at room temperature. […] The extra media was tapped out and to this was added 50 μL of buffer containing Axin2 Antibody (Sigma, SAB1100677-200 µL) at 1:10000 in PBS, 0.1% Tween-20, 1% Normal Goat Serum. The mixture was incubated for 2 hours at room temperature or overnight at 4° C. The cells were then washed twice with PBS, 0.1% Tween-20, and 1% Normal Goat Serum. […] The mixture was then incubated for 30 minutes at room temperature. The cells were then washed twice with PBS, 0.1% Tween-20, and 1% Normal Goat Serum. 50-100 μL PBS was added, and the mixture was covered with a plate seal (Fisher, NC9425162). An ArrayScan (a variation of the compartmental analysis protocol was optimized) was used to scan the plates, and data was analyzed using MEAN_RingSpotAvgIntenCh2). The Axin2 accumulation POC was calculated, and the EC50 was determined using Genedata Screener software to report Axin2 activity.

Where [4] appears, read: Homo sapiens, SW480 cells, 40 to 48 hours, top concentration 10 μM, read-out: SW480-Total β-Catenin IC50 IP.
Setting [5] is: Homo sapiens, SW480, 24 h, SW480 cells, 24 hours.
Setting [6] is: […] enzyme, 400 nM NAD, 60 minutes at room temperature, read-out: TNKS1 IP IC50.
[7] abbreviates: Homo sapiens, SW480, read-out: SW480-Total β-Catenin IC50 IP.
[8] abbreviates: 0.25 nM enzyme, 400 nM NAD, 60 minutes at room temperature, read-out: TNKS1 IP IC50.

Sequence of 6×HIS-tankyrase 1 (1091-1325) (O95271 1091-1325): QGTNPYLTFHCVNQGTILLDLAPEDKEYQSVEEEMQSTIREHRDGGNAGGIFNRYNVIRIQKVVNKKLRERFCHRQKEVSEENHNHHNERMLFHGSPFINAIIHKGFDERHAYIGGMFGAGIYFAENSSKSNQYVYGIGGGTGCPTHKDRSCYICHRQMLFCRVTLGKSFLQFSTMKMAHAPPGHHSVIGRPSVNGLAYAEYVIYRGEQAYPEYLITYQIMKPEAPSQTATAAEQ

Consider `CC1(C)OC(=O)N([C@H]2CC[C@H](n3c(=O)oc4cccnc43)CC2)[C@H]1c1ccccc1` [Example 49, 3-(trans-4-((4S)-5,5-dimethyl-2-oxo-4-phenyl-1,3-oxazolidin-3-yl)cyclohexyl)[1,3]oxazolo[4,5-b]pyridin-2(3H)-one], for which the IC50 was 3460 nM in test [1] and 949 nM in test [2] (setting [4]). Further, in test [3] (setting [5]), the EC50 is over 25000 nM.

For `CC1(C)OC(=O)N([C@H]2CC[C@H](c3cnc(N)c(C4=NCCCN4)c3)CC2)[C@H]1c1ccccc1` [Example 77, (S)-3-((1r,4S)-4-(6-amino-5-(1,4,5,6-tetrahydropyrimidin-2-yl)pyridin-3-yl)cyclohexyl)-5,5-dimethyl-4-phenyloxazolidin-2-one], the IC50 in test [1] (setting [6]) was 1650 nM; in test [2] (setting [4]), over 10000 nM. The EC50 in test [3] (setting [5]) was over 25000 nM.

Turning to `CC1(C)OC(=O)N([C@H]2CC[C@H](n3c(=O)[nH]c4cnc(C(F)(F)F)cc43)CC2)[C@H]1c1ccccc1` [Example 52, (S)-5,5-dimethyl-3-((1r,4S)-4-(2-oxo-6-(trifluoromethyl)-2,3-dihydro-1H-imidazo[4,5-c]pyridin-1-yl)cyclohexyl)-4-phenyloxazolidin-2-one], the IC50 in test [1] (setting [6]) stood at 25.8 nM; in test [2] (setting [4]), 693 nM. Also, in test [3] (setting [5]), the EC50 came out at 1030 nM.

As for `CC1(C)OC(=O)N([C@H]2CC[C@@H](c3c[nH]c(=O)c(-c4ncccn4)c3)CC2)[C@H]1c1ccccc1` [Example 96, (S)-5,5-Dimethyl-3-((1s,4R)-4-(6-oxo-5-(pyrimidin-2-yl)-1,6-dihydropyridin-3-yl)cyclohexyl)-4-phenyloxazolidin-2-one], the IC50 in test [1] (setting [6]) is 511 nM; in test [2] (setting [4]), over 10000 nM. Also, in test [3] (setting [5]), the EC50 is over 25000 nM.

With `C[C@]1(c2ccccc2)CN([C@H]2CC[C@H](n3c(=O)[nH]c4cnccc43)CC2)C(=O)O1` (single isomer, unassigned) [Example 91], the IC50 in test [1] (setting [6]) came to 9.01 nM; in test [2] (setting [4]), 3610 nM. Moreover, the EC50 in test [3] (setting [5]) stood at 4430 nM.

On to `CC1(C)OC(=O)N([C@H]2CC[C@H](c3cc(C4=NCCCN4)c[nH]c3=O)CC2)[C@H]1c1ccccc1` [Example 130, (S)-5,5-dimethyl-3-((1r,4S)-4-(2-oxo-5-(1,4,5,6-tetrahydropyrimidin-2-yl)-1,2-dihydropyridin-3-yl)cyclohexyl)-4-phenyloxazolidin-2-one], for which the IC50 in test [1] (setting [6]) is 783 nM; in test [2] (setting [7]), over 10000 nM. The EC50 in test [3] (Homo sapiens, SW480, 24 h) is over 25000 nM.

Turning to `CC1(C)OC(=O)N([C@H]2CC[C@H](c3cnc(N)c(C#N)c3)CC2)[C@H]1c1ccccc1` [Example 95, 2-amino-5-((1S,4r)-4-((S)-5,5-dimethyl-2-oxo-4-phenyloxazolidin-3-yl)cyclohexyl)nicotinonitrile], the figures for the IC50 in test [1] (setting [6]) and in test [2] (setting [4]) were 6.98 nM and 468 nM, respectively. In test [3] (setting [5]), the EC50 came out at 474 nM.

As to `CC1(C)OC(=O)N([C@H]2CC[C@H](n3c(=O)[nH]c4cnc(Cl)cc43)CC2)[C@H]1c1ccccc1` [Example 53, (S)-3-((1r,4S)-4-(6-chloro-2-oxo-2,3-dihydro-1H-imidazo[4,5-c]pyridin-1-yl)cyclohexyl)-5,5-dimethyl-4-phenyloxazolidin-2-one], the values for the IC50 in test [1] (setting [6]) and in test [2] (setting [4]) were 6.52 nM and 284 nM, respectively. The EC50 in test [3] (setting [5]) was 291 nM.

As for `CC1(c2ccccc2)CN([C@H]2CC[C@H](n3c(=O)[nH]c4cnccc43)CC2)C(=O)O1` (stereo partly drawn) [Example 89, (R+S)-5-methyl-3-((1r,4R)-4-(2-oxo-2,3-dihydro-1H-imidazo[4,5-c]pyridin-1-yl)cyclohexyl)-5-phenyloxazolidin-2-one], the IC50 worked out at 17.2 nM in test [1] (setting [6]) and 3440 nM in test [2] (setting [4]). For the same molecule, the EC50 in test [3] (setting [5]) came out at 7030 nM.

With “(S)-5,5-dimethyl-3-(4-(2-oxo-1H-imidazo[4,5-c]pyridin-3(2H)-yl)phenyl)-4-phenyloxazolidin-2-one [Example 15]”, the IC50 was found to be 105 nM in test [1] (setting [6]) and 992 nM in test [2] (SW480 cells, 40 to 48 hours, top concentration 10 μM, read-out: SW480-Total β-Catenin IC50 IP). For the same molecule, in test [3] (SW480 cells, 24 hours), the EC50 was determined as 4150 nM.

With `CC1(C)OC(=O)N(c2ccc(C(=O)Nc3cccc4cccnc34)cc2)[C@H]1c1cccnc1` [Example 11, (S)-4-(5,5-dimethyl-2-oxo-4-(pyridin-3-yl)oxazolidin-3-yl)-N-(quinolin-8-yl)benzamide], the IC50 is 392 nM in test [1] (setting [6]) and 1520 nM in test [2] (setting [4]). Further, the EC50 in test [3] (setting [5]) worked out at 7060 nM.

`CC1(C)OC(=O)N([C@H]2CC[C@H](c3cnc4[nH]c(=O)n(-c5ncccn5)c4c3)CC2)[C@@H]1c1ccccc1` (single isomer, unassigned) [Example 14]: the IC50 in test [1] (setting [6]) amounted to 26.8 nM; in test [2] (setting [4]) it was 923 nM. Also, the EC50 in test [3] (setting [5]) is 1030 nM.

As to `CC1(C)OC(=O)N([C@H]2CC[C@H](NC(=O)n3ccc4cccnc43)CC2)[C@H]1c1ccccc1` [Example 58, N-(trans-4-((4S)-5,5-dimethyl-2-oxo-4-phenyl-1,3-oxazolidin-3-yl)cyclohexyl)-1H-pyrrolo[2,3-b]pyridine-1-carboxamide], the IC50 in test [1] (setting [6]) turned out to be 7.46 nM; in test [2] (setting [4]), 979 nM. The EC50 in test [3] (setting [5]) was 828 nM.

Turning to `O=C(Nc1cccc2cccnc12)c1ccc(N2C(=O)OC3(CCC3)C2c2ccccc2)cc1` (stereo not drawn) [Example 44, (R+S) 4-(6-oxo-8-phenyl-5-oxa-7-azaspiro[3.4]octan-7-yl)-N-(quinolin-8-yl)benzamide], the IC50 in test [1] (setting [6]) is 822 nM; in test [2] (setting [4]) it was 8800 nM. In addition, in test [3] (Homo sapiens, SW480 cells, 24 hours), the EC50 was over 25000 nM.

`CC1(C)OC(=O)N(c2ccc(-n3cc(-c4ncccn4)ccc3=O)cc2)[C@H]1c1ccccc1` [Example 127, (S)-5,5-dimethyl-3-(4-(2-oxo-5-(pyrimidin-2-yl)pyridin-1(2H)-yl)phenyl)-4-phenyloxazolidin-2-one]: the figures for the IC50 in test [1] (setting [6]) and in test [2] (setting [4]) were 280 nM and 1100 nM, respectively. Further, the EC50 in test [3] (setting [5]) turned out to be 6270 nM.

Regarding `CC1(C)OC(=O)N([C@@H]2CC=C(c3cc(-c4ncccn4)c[nH]c3=O)CC2)[C@H]1c1ccccc1` (single isomer, unassigned) [Example 5], the IC50 in test [1] (setting [6]) was 24.1 nM; in test [2] (setting [4]) it was 447 nM. In test [3] (setting [5]), the EC50 was 816 nM.

As to `CC1(C)OC(=O)N([C@H]2CC[C@H](c3cc(-c4ncccn4)c[nH]c3=O)CC2)C1c1ccccc1` (mixture of isomers) [Example 7, (+/−)-3-(trans-4-((4S/R)-5,5-Dimethyl-2-oxo-4-phenyl-1,3-oxazolidin-3-yl)cyclohexyl)-5-(2-pyrimidinyl)-2(1H)-pyridinone], the IC50 in test [1] (setting [8]) is 31.8 nM; in test [2] (setting [7]), 695 nM. Further, in test [3] (Homo sapiens, SW480, 24 h), the EC50 is 1460 nM.

Turning to `CC1(C)OC(=O)N(c2ccc(-c3nnc4cc(C#N)ccn34)cc2)[C@H]1c1ccccc1` [Example 67, (S)-3-(4-(5,5-dimethyl-2-oxo-4-phenyloxazolidin-3-yl)phenyl)-[1,2,4]triazolo[4,3-a]pyridine-7-carbonitrile], the IC50 in test [1] (setting [6]) was 5230 nM; in test [2] (setting [4]), over 10000 nM. In addition, the EC50 in test [3] (setting [5]) is over 25000 nM.

Take `CC1(C)OC(=O)N([C@H]2CC=C(c3cc(-c4ncccn4)c[nH]c3=O)CC2)[C@H]1c1ccccc1` (single isomer, unassigned) [Example 6]: the IC50 in test [1] (setting [6]) was 46.8 nM; in test [2] (setting [4]) it was 585 nM. In test [3] (setting [5]), the EC50 worked out at 2660 nM.

For `CC1(C)OC(=O)N(c2ccc3c(c2)CCN(c2cccc4cccnc24)C3=O)[C@H]1c1ccccc1` [Example 63, (S)-5,5-dimethyl-3-(1-oxo-2-(quinolin-8-yl)-1,2,3,4-tetrahydroisoquinolin-6-yl)-4-phenyloxazolidin-2-one], the IC50 in test [1] (setting [6]) was 7050 nM; in test [2] (setting [4]), over 10000 nM. In test [3] (setting [5]), the EC50 is over 25000 nM.

In the case of `CC1(C)OC(=O)N(c2ccc(-n3c(=O)oc4ccccc43)cc2)[C@H]1c1ccccc1` [Example 17, (S)-3-(4-(5,5-dimethyl-2-oxo-4-phenyloxazolidin-3-yl)phenyl)benzo[d]oxazol-2(3H)-one], the IC50 was 2820 nM in test [1] (setting [6]) and over 10000 nM in test [2] (setting [4]). Moreover, in test [3] (setting [5]), the EC50 was over 25000 nM.

For `COc1ccc(C2N(c3ccc(C(=O)Nc4cccc5cccnc45)cc3)C(=O)OC2(C)C)cc1` (racemic) [Example 111, (+/−)-(R/S)-4-(4-(4-methoxyphenyl)-5,5-dimethyl-2-oxooxazolidin-3-yl)-N-(quinolin-8-yl)benzamide], the results for the IC50 in test [1] (setting [8]) and in test [2] (setting [4]) were 631 nM and 2440 nM, respectively. In addition, the EC50 in test [3] (setting [5]) came out at 7260 nM.
